“Also recorded” adds a separate entry of the source.
How the values were obtained:
[1] = tested on: individuals with untreated clinical depression; test: Taste recognition thresholds before and two hours after acute paroxetine (SSRI) challenge; format: in vivo, human
Experimental: Taste responses to sweet, salt, bitter and sour stimuli were then determined. Individuals were informed of which taste modality (sweet, bitter, salt, sour) they were receiving but were given no indication of whether the tester thought they would be able to recognise the taste or not.
The taste modalities were applied in solution to the tip of the tongue, using a cotton bud saturated with the solution at room temperature and placed on the tongue for approximately 5 seconds. Without closing their mouth the subject was asked to indicate whether or not they could taste the stimulus at that concentration. Between each stimulus application a 20 second inter-stimulus interval was adhered to during which the subject would rinse their mouth with approximately 25 ml of deionized water.
Each concentration of stimulus was presented to the subject five times in total, and the percentage of positive responses at each concentration determined. Subjects were first presented with a solution above threshold and thereafter, stimuli were presented in a pseudorandom order in concentrations representing ¼ log steps between the lowest (undetectable, 0% detection) to the highest (always detectable, 100% detection) concentrations, with each concentration being presented 5 times.
The range of concentrations for each taste modality was different, as detailed below: • Sweet (1M-300 μM sucrose) • Bitter (300 μM-0.3 μM quinine hydrochloride) • Salt (1M-0.2 mM NaCl) • Sour (100 mM-0.56 mM citric acid; C6H8O7).
Taste psychometric functions before and after paroxetine administration were also determined for all the individuals with previously untreated depression. From these curves, taste recognition thresholds (the concentration at which the subject would recognize the taste 50% of the time) were calculated before and after challenge in order to determine the degree of change in taste recognition that occurred (Heath et al., (2006) Journal of Neuroscience 26(49): 12664-71).
Taste recognition thresholds were determined by testing a solution of a taste modality (sweet, salt, sour, bitter) on the tip of the tongue, and the subject confirmed whether or not they recognised the taste. Referring to FIG. 3, a curve was then constructed of the number of correct identifications against the concentration of the taste in the solution. The taste recognition threshold was calculated from the curve as the concentration at which the subject would correctly identify the taste 50% of the time (Heath, Melichar, Nutt & Donaldson (2006) Journal of Neuroscience 26(49): 12664-71). […]
Patients referred to a depression clinic in Hyderabad, India were screened and recruited to the study. They had their taste recognition threshold assessed before and two hours after taking an antidepressant (Paroxetine, SSRI). […]

healthy volunteers = conditions: healthy individuals; acute dose; two hours after administration; cited from earlier work

For `Fc1ccc([C@@H]2CCNC[C@H]2COc2ccc3c(c2)OCO3)cc1` [paroxetine], the “post-challenge taste recognition thresholds versus healthy controls” value ([1]; all taste modalities, controls without challenge) was “significantly higher”, the “post-challenge taste recognition thresholds versus pre-challenge values (statistical significance)” value ([1]; salt, sweet, sour and bitter, Kruskal Wallis, post-hoc Dunn's tests) was “not significantly different” and the “taste recognition thresholds after acute challenge compared with baseline” value ([1]; salt, sweet, sour and bitter, paroxetine 20 mg, two hours after challenge, n=47) was “reduced; also recorded: generally become lower”. The “effect on depressive symptoms” value ([1]; two hours after acute challenge) was “lack of immediate effect” and the “bitter and sweet taste thresholds” value (healthy volunteers) was “significantly reduced”.

In the case of `CCOc1ccccc1OC(c1ccccc1)C1CNCCO1` (stereo not drawn) [reboxetine], the “bitter and sour thresholds” value (healthy volunteers) is listed as “significantly reduced”.

Source: patent US20190290182A1, “METHOD OF DIAGNOSTIC RELEVANCE BASED ON TASTE RECOGNITION” (RANVIER HEALTH LIMITED, priority 2016, published 2019)
